Test results from the supplement of paper PMC8882468.
± gives the standard deviation of the averaged measurements.

Key:
Assay in all cases: CTG-3D luminescence at 96 h relative to day-0 seeding control (ratio to day 0); higher = more growth / less cytotoxicity; PDxO 3D drug screen (set 2), 96 h, CTG-3D normalised to day-0 seeding control.
[1] = tested on: HCI-001 (organoid from a triple-negative breast cancer xenograft)
[2] = tested on: HCI-015 (organoid from a triple-negative breast cancer xenograft)
[3] = tested on: HCI-012 (organoid from a breast cancer xenograft)
[4] = tested on: HCI-010 (organoid from a breast cancer xenograft)
[5] = tested on: HCI-003.E2 (organoid from an ER-positive breast cancer xenograft)
[6] = tested on: HCI-005.E2 (organoid from a breast cancer xenograft with a HER2-positive history)
[7] = tested on: MDA-MB-231

CC(=O)c1c(C)c2cnc(Nc3ccc(N4CCNCC4)cn3)nc2n(C2CCCC2)c1=O [palbociclib]
CTG-3D luminescence at 96 h
Conditions	12.5 pM	0.00025 µM	0.005 µM	0.1 µM	1 µM	10 µM	100 µM	625 fM
[1], days in culture: 365	2.73	2.25	2.7	2.64	2.4	1.89	1.62	2.11
[1], days in culture: 397	1.74	2.12	2.31	2.47	2.46	2	1.24	1.26
[1], days in culture: 401	1.54	2.13	1.58	1.85	1.33	1.58	0.962	1.63
[2], days in culture: 333	1.88	1.26	1.44	0.877	0.941	0.44	0.369	1.89
[2], days in culture: 355	3.11	2.44	1.74	3.47	0.976	1.99	0.775	1.74
[2], days in culture: 369	2.19	1.75	2.45	1.9	1.82	1.07	0.742	1.94
[3], days in culture: 214	2.51	1.31	1.58	1.96	2.63	2.66	0.494	1.78
[3], days in culture: 243	2.23	2.46	1.58	2.71	2.27	2.37	1.29	3.76
[3], days in culture: 256	1.88	2.23	1.63	3.14	2.13	1.8	0.605	2.46
[3], days in culture: 284	1.65	2.5	2.04	2.56	1.9	2.78	0.731	4.06
[4], days in culture: 79	1.68	1.69	1.79	1.9	1.71	1.47	0.772	1.88
[4], days in culture: 86	2.36	2.42	2.72	2.52	2.49	2.34	1.26	2.21
[4], days in culture: 102	1.09	1.35	1.2	1.65	1.56	1.54	0.787	1.15
[4], days in culture: 164	1.31	1.57	1.74	1.67	1.73	1.25	0.562	1.37

CTG-3D luminescence at 96 h
Conditions	12.5 pM	0.00025 µM	0.005 µM	0.1 µM	1 µM	10 µM	100 µM	625 fM
[5]	2.52 ± 0.43	2.44 ± 0.46	2.53 ± 0.76	2.82 ± 0.78	2.21 ± 0.33	1.92 ± 0.12	0.594 ± 0.47	2.88 ± 0.87
[6]	1.84 ± 0.44	2.56 ± 0.47	2.41 ± 0.23	3.06 ± 0.6	2.51 ± 0.76	2.16 ± 0.63	0.934 ± 0.87	2.38 ± 0.57
[7]	5.2 ± 2.5	5.24 ± 2.5	5.27 ± 2.8	5.18 ± 2	5.16 ± 2.3	4.35 ± 1.2	1.02 ± 0.14	5.32 ± 2.8
